# Test results from article PMC5768637, “In Vitro and in Silico Evidence of Phosphatase Diversity in the Biomineralizing Bacterium Ramlibacter tataouinensis” (Frontiers in Microbiology, 2018).
# What was measured:
# Rta PhoX1 = target: T1, Rta PhoX1 (Ramlibacter tataouinensis, UniProt F5Y472); assay: p-nitrophenol release at […] nm, total soluble protein of expressing E. coli; assay type: biochemical; conditions: 50 mM Tris pH 8, 5 mM CaCl2, 5 mM MgCl2, 0.6 mM substrate
# T1 construct: gene Rta_14460; codon-optimised synthetic gene in pET-22b (MscI/BamHI), E. coli BL21(DE3); total soluble protein extract; precursor 643 aa, predicted Tat signal 51 aa; no precursor form seen on SDS-PAGE
# T1 sequence (F5Y472 52-643): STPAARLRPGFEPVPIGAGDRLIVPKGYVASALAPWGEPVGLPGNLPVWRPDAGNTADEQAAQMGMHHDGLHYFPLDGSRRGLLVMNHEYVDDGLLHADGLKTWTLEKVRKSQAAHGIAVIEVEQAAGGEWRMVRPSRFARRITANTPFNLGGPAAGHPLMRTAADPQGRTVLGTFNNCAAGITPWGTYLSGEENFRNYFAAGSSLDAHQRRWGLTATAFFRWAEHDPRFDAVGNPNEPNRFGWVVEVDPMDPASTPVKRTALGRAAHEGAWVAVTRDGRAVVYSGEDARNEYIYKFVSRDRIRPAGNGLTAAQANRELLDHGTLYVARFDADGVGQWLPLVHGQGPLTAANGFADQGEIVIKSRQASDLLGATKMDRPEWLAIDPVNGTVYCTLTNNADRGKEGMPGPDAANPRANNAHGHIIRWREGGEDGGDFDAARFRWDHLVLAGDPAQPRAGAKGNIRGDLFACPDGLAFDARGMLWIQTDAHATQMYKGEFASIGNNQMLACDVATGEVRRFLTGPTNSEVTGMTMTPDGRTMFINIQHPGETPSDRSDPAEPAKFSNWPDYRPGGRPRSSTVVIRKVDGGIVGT
# Rta PhoD = target: T2, Rta PhoD (Ramlibacter tataouinensis, UniProt F5XVP7); assay: as above; assay type: biochemical; conditions: 50 mM Tris pH 8, 5 mM CaCl2, 5 mM MgCl2, 0.6 mM substrate
# T2 construct: codon-optimised synthetic gene in pET-22b (MscI/BamHI), E. coli BL21(DE3); total soluble protein extract; precursor 530 aa, predicted Tat signal 31 aa; no precursor form seen on SDS-PAGE
# T2 sequence (F5XVP7 32-530): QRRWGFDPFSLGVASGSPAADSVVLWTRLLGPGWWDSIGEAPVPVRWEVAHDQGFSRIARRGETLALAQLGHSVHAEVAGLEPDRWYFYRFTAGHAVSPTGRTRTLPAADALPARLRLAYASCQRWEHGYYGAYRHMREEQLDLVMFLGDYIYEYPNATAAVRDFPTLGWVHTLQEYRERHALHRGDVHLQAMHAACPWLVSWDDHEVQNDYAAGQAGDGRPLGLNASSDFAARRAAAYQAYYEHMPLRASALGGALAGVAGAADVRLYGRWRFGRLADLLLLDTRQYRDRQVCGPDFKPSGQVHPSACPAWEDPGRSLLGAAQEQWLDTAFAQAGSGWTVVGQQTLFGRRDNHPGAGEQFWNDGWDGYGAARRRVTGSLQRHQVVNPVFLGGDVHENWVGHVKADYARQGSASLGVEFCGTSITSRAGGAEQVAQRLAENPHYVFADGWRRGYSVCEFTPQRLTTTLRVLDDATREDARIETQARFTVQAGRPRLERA
Structure (SMILES),"p-nitrophenol release at 405 nm, total soluble protein of expressing E. coli (Rta PhoX1)","p-nitrophenol release at 405 nm, total soluble protein of expressing E. coli (Rta PhoD)"
"O=[N+]([O-])c1ccc(OP(=O)(O)O)cc1 [pNPP, p-nitrophenylphosphate]",the activity of PhoX1 was higher for monoester,"PhoD and PhoX1 hydrolyzed all the pNPP derivatives (pNPP, bis-pNPP, and TpNPP)"
"O=[N+]([O-])c1ccc(OP(=O)(O)Oc2ccc([N+](=O)[O-])cc2)cc1 [bis-pNPP, bis p-nitrophenylphosphate]","PhoD and PhoX1 hydrolyzed all the pNPP derivatives (pNPP, bis-pNPP, and TpNPP)",the activity of PhoD was higher for bis-pNPP diester
